Data on three compounds can be found in patent US9573911B2, “Diphosphate mimetics and uses thereof” (President and Fellows of Harvard College, priority 2011, dated 2017).

The structures appear in SMILES notation.

One experiment deals with T1, JAK3 (Homo sapiens, UniProt P52333).
T1 construct: purchased Invitrogen
T1 sequence (P52333 1-1124): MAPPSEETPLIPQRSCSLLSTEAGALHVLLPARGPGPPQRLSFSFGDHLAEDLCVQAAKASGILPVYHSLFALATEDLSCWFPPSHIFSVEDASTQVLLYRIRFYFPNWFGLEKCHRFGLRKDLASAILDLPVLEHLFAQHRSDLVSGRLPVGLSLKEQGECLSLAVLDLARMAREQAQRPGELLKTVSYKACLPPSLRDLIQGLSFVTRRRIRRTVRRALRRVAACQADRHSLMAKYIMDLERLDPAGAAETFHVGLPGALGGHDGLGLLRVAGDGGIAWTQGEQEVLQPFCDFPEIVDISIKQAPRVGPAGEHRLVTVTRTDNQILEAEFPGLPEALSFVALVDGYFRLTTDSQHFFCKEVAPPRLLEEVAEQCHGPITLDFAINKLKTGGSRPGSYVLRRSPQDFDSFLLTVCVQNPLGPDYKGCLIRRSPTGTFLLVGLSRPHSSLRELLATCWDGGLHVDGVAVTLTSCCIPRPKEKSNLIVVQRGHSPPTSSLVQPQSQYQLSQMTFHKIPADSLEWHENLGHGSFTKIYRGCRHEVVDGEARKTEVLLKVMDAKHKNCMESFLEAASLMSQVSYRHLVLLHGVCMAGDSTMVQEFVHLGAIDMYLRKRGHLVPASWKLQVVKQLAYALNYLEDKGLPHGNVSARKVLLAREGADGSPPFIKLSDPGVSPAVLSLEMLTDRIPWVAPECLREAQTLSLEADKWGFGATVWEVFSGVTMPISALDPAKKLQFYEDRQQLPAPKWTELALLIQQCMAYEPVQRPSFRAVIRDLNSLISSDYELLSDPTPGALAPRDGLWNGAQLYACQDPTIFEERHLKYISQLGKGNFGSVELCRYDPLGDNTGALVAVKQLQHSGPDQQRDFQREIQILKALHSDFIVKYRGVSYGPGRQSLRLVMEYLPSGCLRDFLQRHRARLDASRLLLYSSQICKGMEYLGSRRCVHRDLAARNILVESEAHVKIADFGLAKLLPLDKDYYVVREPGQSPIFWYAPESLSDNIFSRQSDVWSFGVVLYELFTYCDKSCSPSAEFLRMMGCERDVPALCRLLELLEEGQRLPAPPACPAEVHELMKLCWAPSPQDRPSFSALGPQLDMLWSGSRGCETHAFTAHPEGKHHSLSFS
As to the kind of experiment: Further kinase screen, Invitrogen Z'-LYTE. The note with it: Table 3. In kind it is biochemical. How it is done:
(§1) Kinase profiling was conducted using Invitrogen Z'-LYTE screening protocol and assay conditions found at www.invitrogen.com. Compound (2) inhibited PLK1 completely at 5 μM.
(§2) A further kinase screen was performed on Compounds (2), (4A), and (4B) using the assay described above.

The next experiment concerns the target T2, GSK3B (GSK3 beta) (Homo sapiens, UniProt P49841).
T2 construct: purchased Invitrogen
The experiment can be described thus: Further kinase screen, Invitrogen Z'-LYTE. It is filed as biochemical. As to conditions: Table 3. How it is done:
as §1, §2

The target in another experiment is T3, SGK (SGK1) (Homo sapiens, UniProt O00141).
T3 construct: purchased Invitrogen
T3 sequence (O00141 1-431): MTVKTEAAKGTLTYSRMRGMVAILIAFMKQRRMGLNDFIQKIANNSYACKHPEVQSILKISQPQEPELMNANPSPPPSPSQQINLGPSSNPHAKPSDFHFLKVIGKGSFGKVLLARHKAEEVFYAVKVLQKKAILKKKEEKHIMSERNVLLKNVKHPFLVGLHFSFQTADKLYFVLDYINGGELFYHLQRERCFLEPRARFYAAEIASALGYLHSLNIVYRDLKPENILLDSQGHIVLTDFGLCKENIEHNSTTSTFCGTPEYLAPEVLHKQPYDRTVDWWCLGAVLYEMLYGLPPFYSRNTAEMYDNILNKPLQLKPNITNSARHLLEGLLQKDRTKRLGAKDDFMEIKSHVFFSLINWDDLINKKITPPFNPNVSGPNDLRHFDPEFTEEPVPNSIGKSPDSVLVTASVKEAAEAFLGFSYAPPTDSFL
The experiment can be described thus: Further kinase screen, Invitrogen Z'-LYTE. It is filed as biochemical. As to conditions: Table 3. How it is done: as §1, §2

In the next experiment the target is T4, CSNK1G3 (CK1 gamma 3) (Homo sapiens, UniProt Q9Y6M4).
T4 construct: purchased Invitrogen
T4 sequence (Q9Y6M4 whole entry): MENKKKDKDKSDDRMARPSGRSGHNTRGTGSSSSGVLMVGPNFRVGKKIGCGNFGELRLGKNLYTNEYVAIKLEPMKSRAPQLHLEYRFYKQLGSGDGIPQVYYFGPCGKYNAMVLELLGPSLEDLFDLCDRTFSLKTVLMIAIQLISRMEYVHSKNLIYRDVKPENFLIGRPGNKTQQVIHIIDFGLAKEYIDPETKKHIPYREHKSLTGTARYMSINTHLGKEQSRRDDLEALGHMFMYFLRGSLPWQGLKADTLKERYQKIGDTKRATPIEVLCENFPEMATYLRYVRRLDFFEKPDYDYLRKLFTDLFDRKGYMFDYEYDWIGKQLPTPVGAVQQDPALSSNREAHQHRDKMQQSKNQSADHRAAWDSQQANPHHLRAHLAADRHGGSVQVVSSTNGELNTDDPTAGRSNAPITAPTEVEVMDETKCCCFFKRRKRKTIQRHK
As to the kind of experiment: Further kinase screen, Invitrogen Z'-LYTE. As to conditions: Table 3. In kind it is biochemical. How it is done:
as §1, §2

A further experiment deals with T5, RPS6KA3 (RSK2) (Homo sapiens, UniProt P51812).
T5 construct: purchased Invitrogen
T5 sequence (P51812 whole entry): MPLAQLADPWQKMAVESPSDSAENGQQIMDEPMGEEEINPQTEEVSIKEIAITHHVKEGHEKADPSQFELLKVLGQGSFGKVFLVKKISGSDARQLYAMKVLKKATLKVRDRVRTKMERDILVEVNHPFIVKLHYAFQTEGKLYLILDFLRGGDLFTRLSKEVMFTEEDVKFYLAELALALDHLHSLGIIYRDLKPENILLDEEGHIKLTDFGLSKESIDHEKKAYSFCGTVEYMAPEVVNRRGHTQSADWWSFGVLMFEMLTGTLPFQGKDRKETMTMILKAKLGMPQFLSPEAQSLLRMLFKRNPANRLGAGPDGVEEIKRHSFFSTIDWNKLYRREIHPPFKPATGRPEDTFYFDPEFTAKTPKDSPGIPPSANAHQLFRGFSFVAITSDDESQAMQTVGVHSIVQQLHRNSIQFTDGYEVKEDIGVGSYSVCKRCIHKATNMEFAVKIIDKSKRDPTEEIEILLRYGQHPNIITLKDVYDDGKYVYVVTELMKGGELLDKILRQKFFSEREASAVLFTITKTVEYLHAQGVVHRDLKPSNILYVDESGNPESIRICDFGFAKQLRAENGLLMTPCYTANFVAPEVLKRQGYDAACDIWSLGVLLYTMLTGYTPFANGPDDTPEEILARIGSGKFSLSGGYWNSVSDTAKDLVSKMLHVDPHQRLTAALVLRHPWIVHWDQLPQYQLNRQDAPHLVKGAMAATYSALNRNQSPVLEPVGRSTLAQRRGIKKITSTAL
The experiment can be described thus: Further kinase screen, Invitrogen Z'-LYTE. It is filed as biochemical. The note with it: Table 3. How it is done: as §1, §2

The target in another experiment is T6, SYK (Homo sapiens, UniProt P43405).
T6 construct: purchased Invitrogen
The experiment can be described thus: Further kinase screen, Invitrogen Z'-LYTE. It is filed as biochemical. As to conditions: Table 3. Here is the method: as §1, §2

In another experiment the test system is MCF-10A ErbB2 cells. The experiment can be described thus: Western blot of BZX-treated human breast cancer cells (O-GlcNAcylation). In kind it is cell-based. The note with it: 200 μM. Here is the method: Western Blot of BZX-Treated Human Breast Cancer Cells MCF-10A ErbB2 cells were obtained from Joan Brugge's lab at Harvard Medical School (Boston, Mass.). Cells were maintained in DMEM/F12 (Invitrogen) supplemented with 5% horse serum (Invitrogen), 20 ng/ml EGF (Peprotech), 10 μg/ml insulin (Sigma), 100 ng/ml cholera toxin (Sigma), […] hydrocortisone (Sigma), 50 U/ml penicillin and 50 μg/ml streptomycin (Invitrogen). When cells were grown to 70% confluence, old growth medium was removed. Cells were rinsed twice with PBS, and were grown in glucose starvation medium (DMEM-no glucose; Invitrogen) supplemented with 1% horse serum, 50 U/ml penicillin and 50 μg/ml streptomycin) in the absence (control) and presence of (2) (200 μM) for 4 h. PUGNAc (100 μM, Sigma) and glucosamine (2 mM, EMD) were added to the cells and incubated for another 3 h. Cell lysates from 2−5×10^6 cells were prepared in M-PER mammalian protein extraction reagent (Pierce) supplemented with protease inhibitor cocktail (Sigma). Lysates were cleared by centrifugation at 16,000 g for 10 min at 4° C. and analyzed by SDS-PAGE. Proteins were transferred to a nitrocellulose membrane (Bio-Rad Laboratories) and O-GlcNAcylation was detected with anti-O-GlcNAc antibody (CTD 110.6, Sigma, used at 1:5,000) and a secondary anti-mouse IgM-HRP antibody (Pierce, used at 1:20,000). Western Blot of BZX Inhibitor Treated Cell Lysates
For orientation: In western blotting, separated proteins are transferred to a membrane and probed.

The target in the next experiment is T7, MARK3 (Homo sapiens, UniProt P27448).
T7 construct: purchased Invitrogen
T7 sequence (P27448 whole entry): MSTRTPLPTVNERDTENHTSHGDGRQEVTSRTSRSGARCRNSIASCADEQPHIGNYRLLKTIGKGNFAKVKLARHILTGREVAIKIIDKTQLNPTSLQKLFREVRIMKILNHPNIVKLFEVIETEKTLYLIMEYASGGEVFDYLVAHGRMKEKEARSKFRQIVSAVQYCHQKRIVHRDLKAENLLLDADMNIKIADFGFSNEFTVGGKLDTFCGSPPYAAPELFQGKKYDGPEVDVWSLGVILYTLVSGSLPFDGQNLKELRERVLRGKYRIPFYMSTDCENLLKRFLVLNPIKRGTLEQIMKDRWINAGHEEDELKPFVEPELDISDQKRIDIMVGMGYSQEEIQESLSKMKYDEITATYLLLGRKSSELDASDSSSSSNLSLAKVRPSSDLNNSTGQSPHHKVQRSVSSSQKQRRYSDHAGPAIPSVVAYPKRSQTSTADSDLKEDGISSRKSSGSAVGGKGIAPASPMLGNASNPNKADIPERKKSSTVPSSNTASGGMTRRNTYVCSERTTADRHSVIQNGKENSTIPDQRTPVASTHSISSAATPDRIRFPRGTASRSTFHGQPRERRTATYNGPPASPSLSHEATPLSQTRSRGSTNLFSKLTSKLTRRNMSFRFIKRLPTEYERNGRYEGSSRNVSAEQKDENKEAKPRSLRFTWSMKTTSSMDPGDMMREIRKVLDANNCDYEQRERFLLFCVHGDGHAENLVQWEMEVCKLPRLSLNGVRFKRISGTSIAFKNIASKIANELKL
As to the kind of experiment: Further kinase screen, Invitrogen Z'-LYTE. As to conditions: Table 3. It is filed as biochemical. Here is the method:
as §1, §2

T2 sequence (P49841 whole entry): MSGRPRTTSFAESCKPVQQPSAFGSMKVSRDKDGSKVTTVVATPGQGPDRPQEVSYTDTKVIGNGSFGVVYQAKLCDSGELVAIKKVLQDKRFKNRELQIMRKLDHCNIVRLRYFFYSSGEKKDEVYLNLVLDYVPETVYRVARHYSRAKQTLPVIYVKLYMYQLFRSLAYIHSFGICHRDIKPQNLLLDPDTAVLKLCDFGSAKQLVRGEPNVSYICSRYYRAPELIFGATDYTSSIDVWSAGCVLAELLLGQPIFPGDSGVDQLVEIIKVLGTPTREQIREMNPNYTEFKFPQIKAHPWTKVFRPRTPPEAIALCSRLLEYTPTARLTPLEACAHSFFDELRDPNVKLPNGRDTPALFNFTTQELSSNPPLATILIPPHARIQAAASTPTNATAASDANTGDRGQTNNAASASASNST

Turning to `COc1ccc(OC(=O)n2c(=O)oc3cc(C(C)=O)ccc32)cc1` [Compound 2], the “% Inhibition Point 1” value at JAK3 is −90%; on GSK3B (GSK3 beta), −7%; at SGK (SGK1), −234%; at CSNK1G3 (CK1 gamma 3), 13%; at RPS6KA3 (RSK2), −200%; at SYK, 4%. For the same compound, the “% Inhibition Point 2” value at JAK3 is listed as −83%; at GSK3B (GSK3 beta) it was 0%; on SGK (SGK1), −237%; on CSNK1G3 (CK1 gamma 3) it was 16%; at RPS6KA3 (RSK2), −212%; at SYK, −4%. Moreover, the “% Inhibition mean” value at JAK3 is given as −86%; at GSK3B (GSK3 beta) it was −4%; on SGK (SGK1), −236%; on CSNK1G3 (CK1 gamma 3), 14%; on RPS6KA3 (RSK2), −206%; at SYK, 0%. For the same compound, in the experiment on MCF-10A ErbB2 cells, the “inhibition of O-GlcNAcylation in cells” value is on record as “inhibits global O-GlcNAcylation in cells”.

`COc1ccc(OC(=S)n2c(=O)oc3cc(C(C)=O)ccc32)cc1` [Compound 4A]: the “% Inhibition Point 1” value at MARK3 turned out to be 8%; on JAK3, 41%; at GSK3B (GSK3 beta) it was 61%; on SGK (SGK1), 76%; at CSNK1G3 (CK1 gamma 3) it was 30%; at RPS6KA3 (RSK2) it was 55%. In addition, on SYK, the “% Inhibition Point 1” value is 21%. Further, the “% Inhibition Point 2” value on MARK3 was found to be 12%; at JAK3, 30%; at GSK3B (GSK3 beta), 60%; on SGK (SGK1) it was 75%; on CSNK1G3 (CK1 gamma 3), 31%; on RPS6KA3 (RSK2) it was 56%. The “% Inhibition Point 2” value on SYK worked out at 24%. Besides, the “% Inhibition mean” value on MARK3 is listed as 10%; at JAK3 it was 36%; on GSK3B (GSK3 beta), 60%; at SGK (SGK1), 76%; at CSNK1G3 (CK1 gamma 3), 31%; on RPS6KA3 (RSK2), 55%. The “% Inhibition mean” value on SYK was found to be 23%.

On to `COc1ccc(OC(=O)n2c(=S)oc3cc(C(C)=O)ccc32)cc1` [Compound 4B], for which the “% Inhibition Point 1” value on MARK3 came out at 34%; on JAK3, 65%; at GSK3B (GSK3 beta), 92%; at SGK (SGK1), 72%; at CSNK1G3 (CK1 gamma 3), 51%; at RPS6KA3 (RSK2), 58%. Also, the “% Inhibition Point 1” value on SYK was 58%. The “% Inhibition Point 2” value on MARK3 worked out at 36%; on JAK3 it was 64%; at GSK3B (GSK3 beta) it was 93%; at SGK (SGK1), 73%; on CSNK1G3 (CK1 gamma 3) it was 48%; on RPS6KA3 (RSK2), 64%. Also, the “% Inhibition Point 2” value on SYK is 54%. Besides, the “% Inhibition mean” value is reported as 35% at MARK3; 65% at JAK3; 93% at GSK3B (GSK3 beta); 73% on SGK (SGK1); 49% on CSNK1G3 (CK1 gamma 3); 61% on RPS6KA3 (RSK2). The “% Inhibition mean” value on SYK is recorded as 56%.
